# Results: patent US7361668B2 (priority 2001, dated 2008)
# Target: T1, human recombinant m3 receptor (Homo sapiens, UniProt P20309)
# T1 construct: expressed in transfected cells; host or cells: CHO cells (membrane preparation)
# Format: binding
# Conditions: not given
# T1 sequence (P20309 whole entry): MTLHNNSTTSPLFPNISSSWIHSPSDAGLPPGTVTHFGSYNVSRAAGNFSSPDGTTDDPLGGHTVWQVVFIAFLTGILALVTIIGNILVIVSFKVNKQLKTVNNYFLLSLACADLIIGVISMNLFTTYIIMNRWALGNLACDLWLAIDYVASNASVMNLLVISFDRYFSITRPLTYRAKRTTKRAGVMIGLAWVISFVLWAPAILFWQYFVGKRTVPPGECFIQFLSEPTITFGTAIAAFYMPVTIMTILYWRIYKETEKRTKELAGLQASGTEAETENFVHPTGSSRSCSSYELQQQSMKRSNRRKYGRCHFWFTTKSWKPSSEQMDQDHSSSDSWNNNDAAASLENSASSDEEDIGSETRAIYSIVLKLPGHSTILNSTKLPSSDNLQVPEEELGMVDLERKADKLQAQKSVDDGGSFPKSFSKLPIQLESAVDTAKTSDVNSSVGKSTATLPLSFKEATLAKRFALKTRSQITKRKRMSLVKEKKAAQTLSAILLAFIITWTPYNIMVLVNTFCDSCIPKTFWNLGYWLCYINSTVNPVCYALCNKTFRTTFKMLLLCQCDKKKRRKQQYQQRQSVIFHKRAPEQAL
row,SMILES,affinity (in words)
1,"CO[C@]1(C#CC(O)(CC2CCCC2)c2cccs2)CN2CCC1CC2 (stereo partly drawn) [Compound 188, 1-cyclopentyl-4-[(3R)-3-methoxy-1-azabicyclo[2.2.2]oct-3-yl]-2-(2-thienyl)-3-butyn-2-ol]",High affinities
2,"CO[C@]1(C#CC(O)(c2ccccc2)C23CC4CC(CC(C4)C2)C3)CN2CCC1CC2 (stereo partly drawn) [Compound 162, 1-(1-adamantyl)-3-[(3R)-3-methoxy-1-azabicyclo[2.2.2]oct-3-yl]-1-phenyl-2-propyn-1-ol]",High affinities
3,"CO[C@]1(C#CC(O)(c2ccccc2)c2cccc(C)c2)CN2CCC1CC2 (stereo partly drawn) [Compound 72, 3-[(3R)-3-methoxy-1-azabicyclo[2.2.2]oct-3-yl]-1-(3-methylphenyl)-1-phenylprop-2-yn-1-ol]",High affinities
4,"CO[C@]1(C#CC(O)(c2ccccc2)C2CCC=CCC2)CN2CCC1CC2 (stereo partly drawn) [Compound 126, 1-(4-cyclohepten-1-yl)-3-[(3R)-3-methoxy-1-azabicyclo[2.2.2]oct-3-yl]-1-phenyl-2-propyn-1-ol]",High affinities
5,"CO[C@]1(C#CC(O)(c2ccccc2)C2CCCCCCC2)CN2CCC1CC2 (stereo partly drawn) [Compound 89, 1-cyclooctyl-3-[(3R)-3-methoxy-1-azabicyclo[2.2.2]oct-3-yl]-1-phenyl-2-propyn-1-ol]",High affinities
6,"CO[C@]1(C#CC(O)(c2cccnc2F)C2CCCCCC2)CN2CCC1CC2 (stereo partly drawn) [Compound 124, 1-cycloheptyl-1-(2-fluoro-3-pyridinyl)-3-[(3R)-3-methoxy-1-azabicyclo[2.2.2]oct-3-yl]-2-propyn-1-ol]",High affinities
7,"C=CCCC(O)(C#C[C@@]1(OC)CN2CCC1CC2)c1ccccc1 (stereo partly drawn) [Compound 169, 1-[(3R)-3-methoxy-1-azabicyclo[2.2.2]oct-3-yl]-3-phenyl-6-hepten-1-yn-3-ol]",High affinities
8,"CO[C@]1(C#CC(O)(c2ccccc2)C2CC3CCC(C3)C2)CN2CCC1CC2 (stereo partly drawn) [Compound 176, 1-bicyclo[3.2.1]oct-3-yl-3-[(3R)-3-methoxy-1-azabicyclo[2.2.2]oct-3-yl]-1-phenyl-2-propyn-1-ol]",High affinities
9,"CO[C@]1(C#CC(O)(c2ccc(F)cc2)c2cccnc2F)CN2CCC1CC2 (stereo partly drawn) [Compound 141, 1-(4-fluorophenyl)-1-(2-fluoro-3-pyridinyl)-3-[(3R)-3-methoxy-1-azabicyclo[2.2.2]oct-3-yl]-2-propyn-1-ol]",High affinities
10,"CO[C@]1(C#CC(O)(CC(C)(C)C)c2cccs2)CN2CCC1CC2 (stereo partly drawn) [Compound 185, 1-[(3R)-3-methoxy-1-azabicyclo[2.2.2]oct-3-yl]-5,5-dimethyl-3-(2-thienyl)-1-hexyn-3-ol]",High affinities
11,"CO[C@]1(C#CC(O)(c2cccs2)C2CCCCCC2)CN2CCC1CC2 (stereo partly drawn) [Compound 123, 1-cycloheptyl-3-[(3R)-3-methoxy-1-azabicyclo[2.2.2]oct-3-yl]-1-(2-thienyl)-2-propyn-1-ol]",High affinities
12,"COC1(C#CC(C#N)(c2ccccc2)c2ccccc2)CN2CCC1CC2 (racemic) [Compound 64, 4-(3-methoxy-1-azabicyclo[2.2.2]oct-3-yl)-2,2-diphenyl-3-butynenitrile]",High affinities
13,"CO[C@]1(C#CC(O)(c2ccc(F)cc2)c2ccc(F)nc2)CN2CCC1CC2 (stereo partly drawn) [Compound 139, 1-(4-fluorophenyl)-1-(6-fluoro-3-pyridinyl)-3-[(3R)-3-methoxy-1-azabicyclo[2.2.2]oct-3-yl]-2-propyn-1-ol]",High affinities
14,"CO[C@]1(C#CC(O)(c2ccccc2)C2CCCCCCC2)CN2CCC1CC2 (stereo partly drawn) [Compound 91, 1-cyclooctyl-3-[(3R)-3-methoxy-1-azabicyclo[2.2.2]oct-3-yl]-1-phenyl-2-propyn-1-ol]",High affinities
15,"CO[C@]1(C#CC(O)(c2ccccc2)C2CCCCCC2)CN2CCC1CC2 (stereo partly drawn) [Compound 116, 1-cycloheptyl-3-[(3R)-3-methoxy-1-azabicyclo[2.2.2]oct-3-yl]-1-phenyl-2-propyn-1-ol]",High affinities
16,"CO[C@]1(C#CC(O)(c2ccccc2)c2ccc3c(c2)CCC3)CN2CCC1CC2 (stereo partly drawn) [Compound 80, 1-(2,3-dihydro-1H-inden-5-yl)-3-[(3R)-3-methoxy-1-azabicyclo[2.2.2]oct-3-yl]-1-phenyl-2-propyn-1-ol]",High affinities

row,SMILES,affinity (in words)
1,"CO[C@]1(C#CC(O)(c2ccccc2)C2CSCCSC2)CN2CCC1CC2 (stereo partly drawn) [Compound 172, 1-(1,4-dithiepan-6-yl)-3-[(3R)-3-methoxy-1-azabicyclo[2.2.2]oct-3-yl]-1-phenyl-2-propyn-1-ol]",High affinities
2,"CO[C@]1(C#CC(F)(c2ccccc2)C2CCCCC2)CN2CCC1CC2 (stereo partly drawn) [Compound 113, (3R)-3-(3-cyclohexyl-3-fluoro-3-phenyl-1-propynyl)-3-methoxy-1-azabicyclo[2.2.2]octane]",High affinities
3,"CO[C@]1(C#CC(O)(c2ccccc2)C2CCSCC2)CN2CCC1CC2 (stereo partly drawn) [Compound 174, 3-[(3R)-3-methoxy-1-azabicyclo[2.2.2]oct-3-yl]-1-phenyl-1-tetrahydro-2H-thiopyran-4-yl-2-propyn-1-ol]",High affinities
4,"CO[C@]1(C#CC(O)(c2cccs2)c2cccs2)C[N+]2(C)CCC1CC2.[I-] [Compound 155, (3R)-3-[3-hydroxy-3,3-di(2-thienyl)-1-propynyl]-3-methoxy-1-methyl-1-azoniabicyclo[2.2.2]octane iodide]",High affinities
5,"CO[C@]1(C#C[C@](O)(c2ccccc2)C2CCCCCC2)C[N+]2(C)CCC1CC2.[I-] [Compound 119, (3R)-3-[(3R)-3-cycloheptyl-3-hydroxy-3-phenyl-1-propynyl]-3-methoxy-1-methyl-1-azoniabicyclo[2.2.2]octane iodide]",High affinities
6,"CO[C@]1(C#CC(O)(c2ccccn2)c2ccc(Cl)s2)CN2CCC1CC2 (stereo partly drawn) [Compound 190, 1-(5-chloro-2-thienyl)-3-[(3R)-3-methoxy-1-azabicyclo[2.2.2]oct-3-yl]-1-(2-pyridinyl)-2-propyn-1-ol]",High affinities
7,"CO[C@]1(C#CC(O)(c2cccnc2)C2CCCCCC2)CN2CCC1CC2 (stereo partly drawn) [Compound 122, 1-cycloheptyl-3-[(3R)-3-methoxy-1-azabicyclo[2.2.2]oct-3-yl]-1-(3-pyridinyl)-2-propyn-1-ol]",High affinities
8,"CO[C@]1(C#CC(O)(c2cccs2)C2CCCCC2)CN2CCC1CC2 (stereo partly drawn) [Compound 115, 1-cyclohexyl-3-[(3R)-3-methoxy-1-azabicyclo[2.2.2]oct-3-yl]-1-(2-thienyl)-2-propyn-1-ol]",High affinities
9,"COC1(C#CC(O)(c2ccccc2)C2CC3C=CC2C3)CN2CCC1CC2 (stereo not drawn) [Compound 166, 1-bicyclo[2.2.1]hept-5-en-2-yl-3-(3-methoxy-1-azabicyclo[2.2.2]oct-3-yl)-1-phenyl-2-propyn-1-ol]",High affinities
10,"CO[C@]1(C#C[C@@](O)(c2ccccc2)C2CCCCCC2)CN2CCC1CC2 [Compound 118, (1S)-1-cycloheptyl-3-[(3R)-3-methoxy-1-azabicyclo[2.2.2]oct-3-yl]-1-phenyl-2-propyn-1-ol]",High affinities
11,"CO[C@]1(C#CC(O)(c2ccccc2)C2CC3CCC(C2)S3)CN2CCC1CC2 (stereo partly drawn) [Compound 177, 3-[(3R)-3-methoxy-1-azabicyclo[2.2.2]oct-3-yl]-1-phenyl-1-(8-thiabicyclo[3.2.1]oct-3-yl)-2-propyn-1-ol]",High affinities
12,"CO[C@]1(C#CC(O)(c2ccccc2)C2CCSCC2)CN2CCC1CC2 (stereo partly drawn) [Compound 173, 3-[(3R)-3-methoxy-1-azabicyclo[2.2.2]oct-3-yl]-1-phenyl-1-tetrahydro-2H-thiopyran-4-yl-2-propyn-1-ol]",High affinities
13,"OC(C#CC1(F)CN2CCC1CC2)(c1ccccc1)C1CCCCC1 (stereo not drawn) [Compound 111, 1-cyclohexyl-3-(3-fluoro-1-azabicyclo[2.2.2]oct-3-yl)-1-phenylprop-2-yn-1-ol]",High affinities
14,"CCC(CC)C(O)(C#C[C@@]1(OC)CN2CCC1CC2)c1ccccc1 (stereo partly drawn) [Compound 168, 4-ethyl-1-[(3R)-3-methoxy-1-azabicyclo[2.2.2]oct-3-yl]-3-phenyl-1-hexyn-3-ol]",High affinities
15,"CO[C@]1(C#CC(O)(c2ccccc2)C2CCCCCCC2)CN2CCC1CC2 (stereo partly drawn) [Compound 90, 1-cyclooctyl-3-[(3R)-3-methoxy-1-azabicyclo[2.2.2]oct-3-yl]-1-phenyl-2-propyn-1-ol]",High affinities
16,"CO[C@]1(C#C[C@](O)(c2ccccc2)C2CCCCCC2)CN2CCC1CC2 [Compound 117, (1R)-1-cycloheptyl-3-[(3R)-3-methoxy-1-azabicyclo[2.2.2]oct-3-yl]-1-phenyl-2-propyn-1-ol]",High affinities

# System: muscarinic
# Conditions: cited from earlier work
row,SMILES,muscarinic anticholinergic activity
1,OC(C#CC1CN2CCC1CC2)(c1ccccc1)c1ccccc1 (stereo not drawn) [Alpha-(1-azabicyclo[2.2.2]oct-3-ylethynyl)-alpha-phenyl benzenemethanol],marked muscarinic anticholinergic activity
